What was measured:
[1] = test system: Clonic Seizures Caused by Pentylenetetrazole in Rats; test: Protection against clonic seizures caused by pentylenetetrazole in rats; type: in vivo; conditions: Rattus norvegicus; dose 25.0 mg/kg, oral or i.p.; pentylenetetrazole 23 mg/kg i.v. at 30 or 60 min; read-out: % of Rats Protected
Protocol: The anti-anxiety and anticonvulsant properties of the novel compounds of the present invention have been established in a test which indicates anxiolytic and antiepileptic activity by the measure of protection from convulsions resulting from the administration of pentylenetetrazole. Single or graded dose levels of the test compounds were administered orally or intraperitoneally in a 2% starch vehicle, containing 0.5% v/v polyethylene glycol and one drop of Polysorbate 80 to groups of at least 4 rats. At 30 or 60 minutes, the rats were treated intravenously with pentylenetetrazole at a dose of 23 mg/kg of body weight. This dose is estimated to cause clonic seizures in 99% of unprotected rats. It has been reported [R. T. Hill and D. H. Tedeschi, "Animal Testing and Screening Procedures in Evaluating Psychotropic Drugs" in "An Introduction to Psychopharmacology", Eds. R. R. Rech and K. E. Moore, Raven Press, New York, pp 237-288 (1971)] that there is a high degree of correlation between antagonism of pentylenetetrazole seizures in rats and anti-anxietyor anticonvulsant effects in higher warm-blooded animals.

[2] = test system: Brain-Specific Receptors of Rats; test: Inhibition of the binding of 3H-benzodiazepine to brain-specific receptors of rats; set-up: species or system rat (Wistar); conditions: 3H-diazepam 1.5 nM or 3H-flunitrazepam 1.0 nM; rat cortex P2 fraction; test concentration not given

SMILES	responders at 25 mg/kg [1] [%]	% Inhibition [2] [%]
COc1ccc(C(=O)c2cnn3c(-c4cccc(C(F)(F)F)c4)ccnc23)cc1OC [(3,4-dimethoxyphenyl)[7-[3-(trifluoromethyl)phenyl]pyrazolo[1,5-a]pyrimidin-3-yl]methanone]	50	94
Cc1cccc(C(=O)c2cnn3c(-c4cccc(C)c4)ccnc23)c1 [(3-methylphenyl)[7-(3-methylphenyl)pyrazolo[1,5-a]pyrimidin-3-yl]methanone]	25	75
Cc1cccc(C(=O)c2cnn3c(-c4cccc(C(F)(F)F)c4)ccnc23)c1 [(3-methylphenyl)[7-[3-(trifluoromethyl)phenyl]pyrazolo[1,5-a]pyrimidin-3-yl]methanone]	25	67
O=C(c1ccc(Cl)cc1)c1cnn2c(-c3cccnc3)ccnc12 [(4-chlorophenyl)[7-(3-pyridinyl)pyrazolo[1,5-a]pyrimidin-3-yl]methanone]		87
O=C(c1ccc(Cl)cc1)c1cnn2c(-c3ccc(F)cc3)ccnc12 [(4-chlorophenyl)[7-(4-fluorophenyl)pyrazolo[1,5-a]pyrimidin-3-yl]methanone]		16
O=C(c1ccc(F)cc1)c1cnn2c(-c3ccccc3)ccnc12 [(4-fluorophenyl)(7-phenylpyrazolo[1,5-a]pyrimidin-3-yl)methanone]		42
Cc1cc(-c2cccnc2)n2ncc(C(=O)c3ccc(F)cc3)c2n1 [(4-fluorophenyl)[5-methyl-7-(3-pyridinyl)pyrazolo[1,5-a]pyrimidin-3-yl]methanone]		25
O=C(c1ccc(F)cc1)c1cnn2c(-c3ccccc3F)ccnc12 [(4-fluorophenyl)[7-(2-fluorophenyl)pyrazolo[1,5-a]pyrimidin-3-yl]methanone]	50	22
O=C(c1ccc(F)cc1)c1cnn2c(-c3ccccn3)ccnc12 [(4-fluorophenyl)[7-(2-pyridinyl)pyrazolo[1,5-a]pyrimidin-3-yl]methanone]	50	17
Cc1ccc(C(=O)c2cnn3c(-c4ccccn4)ccnc23)cc1 [(4-methylphenyl)[7-(2-pyridinyl)pyrazolo[1,5-a]pyrimidin-3-yl]methanone]		13
Cc1ccc(C(=O)c2cnn3c(-c4ccsc4)ccnc23)cc1 [(4-methylphenyl)[7-(3-thienyl)pyrazolo[1,5-a]pyrimidin-3-yl]methanone]		58
Cc1ccc(C(=O)c2cnn3c(-c4ccncc4)ccnc23)cc1 [(4-methylphenyl)[7-(4-pyridinyl)pyrazolo[1,5-a]pyrimidin-3-yl]methanone]	50	19
Cc1cnc2c(C(=O)c3ccccc3)cnn2c1-c1ccccc1 [(6-methyl-7-phenylpyrazolo[1,5-a]pyrimidin-3-yl)phenyl-methanone]	25	24
O=C(c1cccc(C(F)(F)F)c1)c1cnn2c(-c3ccccc3)ccnc12 [(7-phenylpyrazolo[1,5-a]pyrimidin-3-yl)[3-(trifluoromethyl)phenyl]methanone]		19
CC(=O)Nc1cccc(-c2ccnc3c(C(=O)c4ccccc4)cnn23)c1 [N--[3-(3-benzoylpyrazolo[1,5-a]pyrimidin-7-yl)phenyl]acetamide]		65
CC(=O)Nc1ccc(-c2ccnc3c(C(=O)c4ccccc4)cnn23)cc1 [N-[4-(3-Benzoylpyrazolo[1,5-a]pyrimidin-7-yl)phenyl]acetamide]		33
O=C(c1ccccc1)c1cnn2c(-c3ccccc3)ccnc12 [Phenyl(7-phenylpyrazolo[1,5-a]pyrimidin-3-yl)methanone]		55
Cc1nn2c(-c3cccnc3)ccnc2c1C(=O)c1ccccc1 [[2-methyl-7-(3-pyridinyl)pyrazolo[1,5-a]pyrimidin-3-yl]phenyl-methanone]	50	52
O=C(c1cccc(C(F)(F)F)c1)c1cnn2c(-c3cccc(C(F)(F)F)c3)ccnc12 [[3-(trifluoromethyl)phenyl][7-[3-(trifluoromethyl)phenyl]pyrazolo[1,5-a]pyrimidin-3-yl]methanone]		56
Cc1cc(-c2cccnc2)n2ncc(C(=O)c3ccccc3)c2n1 [[5-Methyl-7-(3-pyridinyl)pyrazolo[1,5-a]pyrimidin-3-yl]phenyl-methanone]		15

SMILES	responders at 25 mg/kg [1] [%]	% Inhibition [2] [%]
Cc1cc(-c2cc[n+]([O-])cc2)n2ncc(C(=O)c3ccccc3)c2n1 [[5-Methyl-7-(4-pyridinyl)pyrazolo[1,5-a]pyrimidin-3-yl]phenyl-methanone, pyridine-1-oxide]	25	52
Cc1cc(-c2ccncc2)n2ncc(C(=O)c3ccccc3)c2n1 [[5-Methyl-7-(4-pyridinyl)pyrazolo[1,5-a]pyrimidin-3-yl]phenyl-methanone]		93
Cc1cc(-c2cccc(C(F)(F)F)c2)n2ncc(C(=O)c3ccccc3)c2n1 [[5-Methyl-7-[3-(trifluoromethyl)phenyl]pyrazolo[1,5-a]pyrimidin-3-yl]phenyl-methanone]		27
O=C(c1ccccc1)c1cnn2c(-c3cc(Cl)ccc3Cl)ccnc12 [[7-(2,5-dichlorophenyl)pyrazolo[1,5-a]pyrimidin-3-yl]phenyl-methanone]		21
O=C(c1ccco1)c1cnn2c(-c3ccccc3F)ccnc12 [[7-(2-fluorophenyl)pyrazolo[1,5-a]pyrimidin-3-yl]-2-furanyl-methanone]		34
O=C(c1cccc(C(F)(F)F)c1)c1cnn2c(-c3ccco3)ccnc12 [[7-(2-furanyl)pyrazolo[1,5-a]pyrimidin-3-yl][3-(trifluoromethyl)phenyl]methanone]		36
Cc1cc(-c2ccc(Cl)c(Cl)c2)n2ncc(C(=O)c3ccccc3)c2n1 [[7-(3,4-dichlorophenyl)-5-methylpyrazolo[1,5-a]pyrimidin-3-yl]phenyl-methanone]	25	97
COc1ccc(-c2cc(C)nc3c(C(=O)c4ccc(F)cc4)cnn23)cc1OC [[7-(3,4-dimethoxyphenyl)-5-methylpyrazolo[1,5-a]pyrimidin-3-yl](4-fluorophenyl)methanone]	25	48
O=C(c1ccccc1)c1cnn2c(-c3cc(Cl)cc(Cl)c3)ccnc12 [[7-(3,5-dichlorophenyl)pyrazolo[1,5-a]pyrimidin-3-yl]phenyl-methanone]	25	20
O=C(c1ccccc1)c1cnn2c(-c3cccc(Cl)c3)ccnc12 [[7-(3-chlorophenyl)pyrazolo[1,5-a]pyrimidin-3-yl]phenyl-methanone]		95
O=C(c1ccccc1)c1cnn2c(-c3cccc(F)c3)ccnc12 [[7-(3-fluorophenyl)pyrazolo[1,5-a]pyrimidin-3-yl]phenyl-methanone]		88
O=C(c1cccs1)c1cnn2c(-c3cccnc3)ccnc12 [[7-(3-pyridinyl)pyrazolo[1,5-a]pyrimidin-3-yl]-2-thienyl-methanone]	75	82
O=C(c1cccs1)c1cnn2c(-c3ccncc3)ccnc12 [[7-(4-pyridinyl)pyrazolo[1,5-a]pyrimidin-3-yl]-2-thienyl-methanone]		62
O=C(c1cccc(C(F)(F)F)c1)c1cnn2c(-c3ccncc3)ccnc12 [[7-(4-pyridinyl)pyrazolo[1,5-a]pyrimidin-3-yl][3-(trifluoromethyl)phenyl]methanone]		99
O=C(c1ccccc1)c1cnn2c(-c3cc(C(F)(F)F)ccc3Cl)ccnc12 [[7-[2-chloro-5-(trifluoromethyl)phenyl]pyrazolo[1,5-a]pyrimidin-3-yl]phenyl-methanone]		86
CSc1cccc(-c2ccnc3c(C(=O)c4ccccc4)cnn23)c1 [[7-[3-(methylthio)phenyl]pyrazolo[1,5-a]pyrimidin-3-yl]phenyl-methanone]		98
O=C(c1ccccc1)c1cnn2c(-c3ccccn3)ccnc12 [phenyl[7-(2-pyridinyl)pyrazolo[1,5-a]pyrimidin-3-yl]methanone]		30
O=C(c1ccccc1)c1cnn2c(-c3cccs3)ccnc12 [phenyl[7-(2-thienyl)pyrazolo[1,5-a]pyrimidin-3-yl]methanone]		96
COc1cc(-c2ccnc3c(C(=O)c4ccccc4)cnn23)cc(OC)c1OC [phenyl[7-(3,4,5-trimethoxyphenyl)pyrazolo[1,5-a]pyrimidin-3-yl]methanone]		24
O=C(c1ccccc1)c1cnn2c(-c3ccsc3)ccnc12 [phenyl[7-(3-thienyl)pyrazolo[1,5-a]pyrimidin-3-yl]methanone]		96

Source: US4521422A, “Aryl and heteroaryl[7-(aryl and heteroaryl)pyrazolo[1,5-a]pyrimidin-3-yl]methanones” (American Cyanamid Company, priority 1984, dated 1985)
